Reference: patent US4268685A, “Salicylamide esters and related pharmaceutical composition” (Neopharmed S.p.A., priority 1979, dated 1981)
Values belong to the compound of their own block, whether it stands above or below them.

Columns and labels:
[1] = system: prostaglandine synthetases; assay: forming of prostaglandine synthetases
[2] = solubility of the product; format: physicochemical
[3] = hot plate test; settings: in vivo
Description: The pharmacological tests, as carried out with the compound of example 3, show: […]

[4] = in vivo
[5] = plasma content (bioavailability) after administration; settings: in vivo
[6] = in vivo, po

SMILES: COc1ccc2c(c1)c(CC(=O)O)c(C)n2C(=O)c1ccc(Cl)cc1 [indomethacin]
effect on the forming of prostaglandine synthetases [1]: opposite behaviour

SMILES: COc1ccc2cc([C@H](C)C(=O)Oc3ccccc3C(N)=O)ccc2c1 [Example 1, Ester of salicylamide with 2-(6'-methoxy-2'-naphtyl)-propionic acid]
solubility in acetone ([2]; acetone): soluble | solubility in alcohol ([2]; alcohol): little soluble | solubility in benzene ([2]; benzene): little soluble | solubility in chloroform ([2]; chloroform): little soluble | solubility in pyridine ([2]; pyridine): soluble | solubility in water ([2]; water): insoluble

SMILES: CC(C)Cc1ccc(C(C)C(=O)Oc2ccccc2C(N)=O)cc1 (centres unmarked) [Example 3, Ester of salicylamide with 2-(4-isobutyl-phenyl)-propionic acid]
activity at the hot plate test [3]: high activity | effect on the forming of prostaglandine synthetases [1]: enhanced | time for which plasma content remains essentially unchanged ([4]; po): more than 7 hours | time extended action [5]: time extended action

The next lines start with results.

Tmax [6]: 1 h
SMILES: CC(C)Cc1ccc(C(C)C(=O)O)cc1 (centres unmarked) [Ibuprofen, 2-(4-isobutyl-phenyl)-propionic acid]
effect on the forming of prostaglandine synthetases [1]: opposite behaviour

presence of salicylamide in the plasma [4]: not present in the plasma
SMILES: NC(=O)c1ccccc1O [salicylamide]
